Legend:
[1] = system: mouse embryonic fibroblasts (MEF); details: 48 h
α-L-iduronidase = α-L-iduronidase activity assay in MEF cells from homozygous Idua-W402X mice; format: cell-based, Mouse; details: 48 hours; escin 0.25 to 160 μM, doxorubicin 5 to 160 μM
Experimental: α-L-iduronidase activity was determined as follows. Cell extracts were obtained from mouse embryonic fibroblast (MEF) cells homozygous for the W402X mutation and immortalized using the SV40 Large T antigen using a lentiviral expression system. α-L-iduronidase activity was determined as described by Wang et al. (Wang, D. et al., 2012; Mol Genet Metab 105: 116-125). Briefly, 4-methyl-umbelliferone iduronide (FMU) was added to the cell lysate as a substrate at low pH (for example, 130 mM sodium formate buffer, pH 3.5). The reaction was incubated for 72 h at 37° C. after which the reaction was quenched by the addition of high pH buffer (for example, glycine-NaOH buffer, pH 10.8). The fluorescence of the cleaved free FMU molecule was immediately measured at 365 nm excitation and 450 nm emission using a fluorometer and the amount of active iduronidase was expressed as nmol FMU released/mg protein/hour.
After 48 hours, cell lysates were obtained and the activity of MEF α-L-iduronidase was determined. Enhancement of PTC read-through by the compounds of the present disclosure was determined by an increase in α-L-iduronidase activity.

## COc1cccc2c1C(=O)c1c(O)c3c(c(O)c1C2=O)C[C@@](O)(C(=O)CO)C[C@@H]3O[C@H]1C[C@H](N)[C@H](O)[C@H](C)O1 [Doxorubicin, DOXORUBICIN]
[1]
  decrease of total protein concentrations: about 40%
α-L-iduronidase
  α-L-iduronidase activity as compared to vehicle control: dose-dependent increase
